Type in all cases: functional
One assay relates to Malme-3M. The assay can be described thus: Growth inhibition of human MALME-3M cells assessed as cell growth at 10^-4 M incubated for 48 hrs by sulforhodamine B assay relative to control. Particulars: read-out: Activity.
A further assay deals with 786-0. The assay can be described thus: Growth inhibition of human 786-0 cells assessed as cell growth at 10^-5 M incubated for 48 hrs by sulforhodamine B assay relative to control. Particulars: 786-0, 48 h, read-out: Activity.
The test system of another assay is MDA-MB-468. The assay can be described thus: Growth inhibition of human MDA-MB-468 cells assessed as cell growth at 10^-6 M incubated for 48 hrs by sulforhodamine B assay relative to control. Particulars: MDA-MB-468, 48 h, read-out: Activity. For orientation: In SRB staining, fixed cells bind dye roughly in proportion to their protein.
Another assay has as its system HL-60(TB). The assay can be described thus: Growth inhibition of human HL-60(TB) cells assessed as cell growth at 10^-4 M incubated for 48 hrs by sulforhodamine B assay relative to control. Particulars: HL-60, 48 h, read-out: Activity.
Assay [1] concerns A498. The assay is described as follows: Growth inhibition of human A498 cells assessed as cell growth at 10^-4 M incubated for 48 hrs by sulforhodamine B assay relative to control. To be noted: A498, 48 h, read-out: Activity.
A further assay concerns OVCAR-8. The assay is described as follows: Growth inhibition of human OVCAR8 cells assessed as cell growth at 10^-5 M incubated for 48 hrs by sulforhodamine B assay relative to control. To be noted: OVCAR-8, 48 h, read-out: Activity.
The test system of the next assay is SNB-75. The assay can be described thus: Growth inhibition of human SNB75 cells assessed as cell growth at 10^-5 M incubated for 48 hrs by sulforhodamine B assay relative to control. To be noted: SNB-75, 48 h, read-out: Activity.
Assay [2] deals with EKVX. The assay is described as follows: Growth inhibition of human EKVX cells assessed as cell growth at 10^-4 M incubated for 48 hrs by sulforhodamine B assay relative to control. Particulars: read-out: Activity.
The next assay deals with NCI-H460. The assay is described as follows: Growth inhibition of human NCI-H460 cells assessed as cell growth at 10^-4 M incubated for 48 hrs by sulforhodamine B assay relative to control. Particulars: NCI-H460, 48 h, read-out: Activity.
Another assay concerns HOP-62. The assay can be described thus: Growth inhibition of human HOP62 cells assessed as cell growth at 10^-4 M incubated for 48 hrs by sulforhodamine B assay relative to control. Particulars: HOP-62, 48 h, read-out: Activity.
Assay [3] has as its system UO-31. The assay is described as follows: Growth inhibition of human UO31 cells assessed as cell growth at 10^-5 M incubated for 48 hrs by sulforhodamine B assay relative to control. To be noted: UO-31, 48 h, read-out: Activity.
For the next assay, the system named is HOP-92. The assay can be described thus: Growth inhibition of human HOP92 cells assessed as cell growth at 10^-5 M incubated for 48 hrs by sulforhodamine B assay relative to control. Particulars: HOP-92, 48 h, read-out: Activity.
The subject of the next assay is A549. The assay can be described thus: Growth inhibition of human A549/ATCC cells assessed as cell growth at 10^-5 M incubated for 48 hrs by sulforhodamine B assay relative to control. Particulars: A549, 48 h, read-out: Activity.
A further assay concerns HCC 2998. The assay is described as follows: Growth inhibition of human HCC2998 cells assessed as cell growth at 10^-4 M incubated for 48 hrs by sulforhodamine B assay relative to control. To be noted: HCC 2998, 48 h, read-out: Activity.
Another assay concerns RPMI-8226. The assay can be described thus: Growth inhibition of human RPMI8226 cells assessed as cell growth at 10^-5 M incubated for 48 hrs by sulforhodamine B assay relative to control. To be noted: RPMI-8226, 48 h, read-out: Activity.
The next assay relates to SK-MEL-5. The assay is described as follows: Growth inhibition of human SK-MEL-5 cells assessed as cell growth at 10^-4 M incubated for 48 hrs by sulforhodamine B assay relative to control. To be noted: SK-MEL-5, 48 h, read-out: Activity.
The subject of the next assay is UACC-257. The assay can be described thus: Growth inhibition of human UACC257 cells assessed as cell growth at 10^-4 M incubated for 48 hrs by sulforhodamine B assay relative to control. Particulars: UACC-257, 48 h, read-out: Activity.
The subject of assay [4] is UO-31. The assay is described as follows: Growth inhibition of human UO31 cells assessed as cell growth at 10^-4 M incubated for 48 hrs by sulforhodamine B assay relative to control. To be noted: UO-31, 48 h, read-out: Activity.
A further assay relates to M14. The assay can be described thus: Growth inhibition of human M14 cells assessed as cell growth at 10^-4 M incubated for 48 hrs by sulforhodamine B assay relative to control. Particulars: M14, 48 h, read-out: Activity.
For a further assay, the system named is OVCAR-3. The assay can be described thus: Growth inhibition of human OVCAR3 cells assessed as cell growth at 10^-5 M incubated for 48 hrs by sulforhodamine B assay relative to control. Particulars: OVCAR-3, 48 h, read-out: Activity.
Assay [5] relates to A498. The assay can be described thus: Growth inhibition of human A498 cells assessed as cell growth at 10^-5 M incubated for 48 hrs by sulforhodamine B assay relative to control. Particulars: A498, 48 h, read-out: Activity.
In assay [6] the test system is SK-MEL-2. The assay is described as follows: Growth inhibition of human SK-MEL-2 cells assessed as cell growth at 10^-5 M incubated for 48 hrs by sulforhodamine B assay relative to control. Particulars: SK-MEL-2, 48 h, read-out: Activity.
The test system of assay [7] is SK-MEL-2. The assay can be described thus: Growth inhibition of human SK-MEL-2 cells assessed as cell growth at 10^-4 M incubated for 48 hrs by sulforhodamine B assay relative to control. To be noted: SK-MEL-2, 48 h, read-out: Activity.
For another assay, the system named is NCI-H322M. The assay can be described thus: Growth inhibition of human NCI-H322M cells assessed as cell growth at 10^-4 M incubated for 48 hrs by sulforhodamine B assay relative to control. To be noted: read-out: Activity.
The subject of assay [8] is SF-295. The assay is described as follows: Growth inhibition of human SF295 cells assessed as cell growth at 10^-5 M incubated for 48 hrs by sulforhodamine B assay relative to control. To be noted: SF-295, 48 h, read-out: Activity.
For the next assay, the system named is SK-OV-3. The assay is described as follows: Growth inhibition of human SKOV3 cells assessed as cell growth at 10^-5 M incubated for 48 hrs by sulforhodamine B assay relative to control. To be noted: SK-OV-3, 48 h, read-out: Activity.
A further assay concerns T47D. The assay can be described thus: Growth inhibition of human T47D cells assessed as cell growth at 10^-6 M incubated for 48 hrs by sulforhodamine B assay relative to control. Particulars: read-out: Activity.
Assay [9] has as its system SF-295. The assay is described as follows: Growth inhibition of human SF295 cells assessed as cell growth at 10^-4 M incubated for 48 hrs by sulforhodamine B assay relative to control. Particulars: SF-295, 48 h, read-out: Activity.
The subject of another assay is LOX IMVI. The assay is described as follows: Growth inhibition of human LOXIMVI cells assessed as cell growth at 10^-5 M incubated for 48 hrs by sulforhodamine B assay relative to control. To be noted: read-out: Activity.
The next assay relates to Hs-578T. The assay is described as follows: Growth inhibition of human Hs 578T cells assessed as cell growth at 10^-4 M incubated for 48 hrs by sulforhodamine B assay relative to control. Particulars: read-out: Activity.
A further assay has as its system IGROV-1. The assay is described as follows: Growth inhibition of human IGROV1 cells assessed as cell growth at 10^-6 M incubated for 48 hrs by sulforhodamine B assay relative to control. To be noted: IGROV-1, 48 h, read-out: Activity.
The subject of assay [10] is EKVX. The assay can be described thus: Growth inhibition of human EKVX cells assessed as cell growth at 10^-5 M incubated for 48 hrs by sulforhodamine B assay relative to control. To be noted: read-out: Activity.
The test system of the next assay is COLO 205. The assay can be described thus: Growth inhibition of human COLO205 cells assessed as cell growth at 10^-6 M incubated for 48 hrs by sulforhodamine B assay relative to control. To be noted: COLO 205, 48 h, read-out: Activity.
The subject of another assay is SF-268. The assay is described as follows: Growth inhibition of human SF268 cells assessed as cell growth at 10^-4 M incubated for 48 hrs by sulforhodamine B assay relative to control. Particulars: SF-268, 48 h, read-out: Activity.

As to `C#C[C@@]1(O)[C@@H](CO)O[C@@H](n2cc(F)c3c(N)ncnc32)[C@@H]1O`, the growth at 100 µM in the assay with Malme-3M is -47%; in the assay on HL-60(TB) it was -32%; with A498 [1], -75%; in the assay on EKVX [2], -10%; in the assay with NCI-H460, -38%; in the assay with HOP-62, -15%. For the same molecule, the growth at 100 µM was -71% with HCC 2998; -93% with SK-MEL-5; -30% in the assay with UACC-257; -30% in the assay with UO-31 [4]; -47% in the assay on M14; -36% in the assay with SK-MEL-2 [7]. Moreover, the growth at 100 µM was -30% in the assay on NCI-H322M, -74% in the assay on SF-295 [9] and 8% in the assay on Hs-578T. The growth at 10 µM with 786-0 is -52%; with OVCAR-8, -12%; in the assay with SNB-75 it was -90%; in the assay on UO-31 [3], -36%; in the assay with HOP-92 it was -33%; in the assay with A549, -26%. The growth at 10 µM in the assay with RPMI-8226 was -2%; with OVCAR-3, 5%; with A498 [5] it was -77%; in the assay with SK-MEL-2 [6], -26%; with SF-295 [8], -69%; in the assay on SK-OV-3, -26%. In addition, the growth at 10 µM with LOX IMVI is -78%; with EKVX [10] it was 1%. For the same molecule, the growth at 1 µM in the assay with MDA-MB-468 was 13%; with T47D it was -10%; in the assay with IGROV-1, 6%; with COLO 205, 7%.
Regarding `C#C[C@@]1(O)[C@@H](CO)O[C@@H](n2ccc3c(N)ncnc32)[C@@H]1O`, the growth at 100 µM was -76% in the assay with Malme-3M; -38% in the assay with HL-60(TB); -47% in the assay on A498 [1]; -26% in the assay with EKVX [2]; -13% in the assay with NCI-H460; -10% in the assay on HOP-62. The growth at 100 µM was -78% with HCC 2998; -99% in the assay with SK-MEL-5; -62% in the assay with UACC-257; -37% in the assay on UO-31 [4]; -88% in the assay with M14; -8% in the assay with SF-268. For the same molecule, the growth at 100 µM is -34% in the assay with SK-MEL-2 [7], -65% in the assay with NCI-H322M, -44% with SF-295 [9] and 2% with Hs-578T. Also, the growth at 10 µM in the assay with 786-0 was -18%; in the assay on OVCAR-8, -32%; in the assay on SNB-75 it was -64%; in the assay on UO-31 [3], -55%; in the assay on HOP-92, -29%; in the assay on A549, 4%. Besides, the growth at 10 µM was 7% in the assay on RPMI-8226; 3% in the assay with OVCAR-3; -60% in the assay on A498 [5]; -15% with SK-MEL-2 [6]; -28% with SF-295 [8]; -20% in the assay on SK-OV-3. Also, the growth at 10 µM in the assay with LOX IMVI is -87%; in the assay with EKVX [10] it was -24%. The growth at 1 µM in the assay on MDA-MB-468 was 64%; in the assay with T47D, 30%; in the assay on IGROV-1, 63%; in the assay on COLO 205 it was 40%.
`C#C[C@@]1(O)[C@@H](CO)O[C@@H](n2cc(I)c3c(N)ncnc32)[C@@H]1O`: the growth at 100 µM with SF-268 is -7%.

For the origin of these results see ChEMBL document CHEMBL4270599, “Synthesis of a 3'-C-ethynyl-β-d-ribofuranose purine nucleoside library: Discovery of C7-deazapurine analogs as potent antiproliferative nucleosides” (Eur J Med Chem, 2018).
